The data set in a line: HILIC, Waters ACQUITY UPLC BEH Amide, 100 × 2.1 mm, 1.7 µm; A: water + 0.125% formic acid + 10 mM ammonium formate; B: 5% water + 95% acetonitrile + 0.125% formic acid + 10 mM ammonium formate; gradient (min/%B) 0/100 2/100 7.7/70 9.5/40 10.25/30 12.75/100 17/100. As to conditions: stereoisomer not certain.

`Nc1nc2c(c(=O)[nH]1)N(C=O)C(CNc1ccc(C(=O)NC(CCC(=O)O)C(=O)O)cc1)CN2` (centres undefined) [Folinic acid]: the LC retention time amounted to 7.92 min.

With `COc1ccc(-c2coc3cc(O)ccc3c2=O)cc1` [Formononetine], the LC retention time amounted to 1.18 min.

Turning to `COc1ccc(CC(C)NCC(O)c2ccc(O)c(NC=O)c2)cc1` (centres undefined) [Formoterol], the LC retention time worked out at 5.18 min.

As for `CC(=O)OC1CC(C)(C)C(=C=CC(C)=CC=CC(C)=CC=CC=C(C)C=CC=C(C)C(=O)CC23OC2(C)CC(O)CC3(C)C)C(C)(O)C1` (centres undefined) [Fucoxanthin], the LC retention time was 1.07 min.

In the case of `CCOC(=O)c1ccc(OC(=O)CCCCCN=C(N)N)cc1` [Gabexate], the LC retention time stood at 3.45 min.

For the compound `NC1C(O)OC(CO)C(O)C1O` (centres undefined) [Galactosamine], the LC retention time is 8.44 min.

`COc1ccc2c3c1OC1CC(O)C=CC31CCN(C)C2` (centres undefined) [Galanthamine]: the LC retention time turned out to be 4.62 min.

Turning to `COC(=O)C1=COC(OC2OC(CO)C(O)C(O)C2O)C2C(CO)=CCC12` (centres undefined) [Geniposide], the LC retention time is 4.53 min.

As to `O=C(O)c1cc(O)ccc1O` [Gentisinic acid], the LC retention time was 3.18 min.

On to `CC(C)=CCCC(C)=CC(=O)O` [Geranic acid], for which the LC retention time stood at 1.3 min.

`CCC1=C(C)CN(C(=O)NCCc2ccc(S(=O)(=O)NC(=O)NC3CCC(C)CC3)cc2)C1=O` (centres undefined) [Glimepiride]: the LC retention time amounted to 1.05 min.

For the compound `NC(N)=NCCCC(NC(=O)C(N)CCC(=O)O)C(=O)O` (centres undefined) [Glu-Arg], the LC retention time is 9.9 min.

As to `NC(=O)CCC(NC(=O)C(N)CCC(=O)O)C(=O)O` (centres undefined) [Glu-Gln], the LC retention time was found to be 9.6 min.

With `NCCCCC(NC(=O)C(N)CCC(=O)O)C(=O)O` (centres undefined) [Glu-Lys], the LC retention time worked out at 9.9 min.

On to `NC(CCC(=O)O)C(=O)NC(Cc1ccccc1)C(=O)O` (centres undefined) [Glu-Phe], for which the LC retention time was determined as 8.2 min.

In the case of `CC(O)C(NC(=O)C(N)CCC(=O)O)C(=O)O` (centres undefined) [Glu-Thr], the LC retention time came out at 9.44 min.

For the compound `CC(C)C(NC(=O)C(N)CCC(=O)O)C(=O)NC(Cc1ccccc1)C(=O)O` (stereo not drawn) [Glu-Val-Phe], the LC retention time was 7.66 min.

As for `O=C1OC(CO)C(O)C(O)C1O` (centres undefined) [Gluconolactone], the LC retention time amounted to 8.15 min.

As to `CS(=O)CCCCC(=NOS(=O)(=O)O)SC1OC(CO)C(O)C(O)C1O` (centres undefined) [Glucoraphanin], the LC retention time was 7.37 min.

With `NC1C(O)OC(COP(=O)(O)O)C(O)C1O` (centres undefined) [Glucosamine-6-phosphate], the LC retention time is 10.1 min.

Take `O=P(O)(O)OC1OC(CO)C(O)C(O)C1O` (centres undefined) [Glucose-1-phosphate]: the LC retention time came to 9.61 min.

Take `O=P(O)(O)OCC1OC(O)C(O)C(O)C1O` (centres undefined) [Glucose-6-phosphate]: the LC retention time stood at 9.86 min.

Consider `O=CC(O)C(O)C(O)C(O)CO` (centres undefined) [Glucose], for which the LC retention time worked out at 1.84 min.

As to `NC(CCC(=O)O)C(=O)O` (centres undefined) [Glutamic acid], the LC retention time amounted to 8.85 min.

For the compound `NC(CCC(=O)NC(CSSCC(NC(=O)CCC(N)C(=O)O)C(=O)NCC(=O)O)C(=O)NCC(=O)O)C(=O)O` (centres undefined) [Glutathione (oxidized)], the LC retention time turned out to be 10.2 min.

With `NC(CCC(=O)NC(CS)C(=O)NCC(=O)O)C(=O)O` (centres undefined) [Glutathione (reduced)], the LC retention time is 9.07 min.

`NCC(=O)NCC(=O)NCC(=O)O` [Gly-Gly-Gly]: the LC retention time came out at 9.18 min.

Consider `CCC(C)C(NC(=O)CN)C(=O)O` (centres undefined) [Gly-Ile], for which the LC retention time was 7.67 min.

Consider `NCC(=O)N1CCCC1C(=O)O` (centres undefined) [Gly-Pro], for which the LC retention time stood at 8.62 min.

On to `CC(NC(=O)C(Cc1ccc(O)cc1)NC(=O)CN)C(=O)O` (stereo not drawn) [Gly-Tyr-Ala], for which the LC retention time is 7.89 min.

Consider `NCC(=O)NC(Cc1ccc(O)cc1)C(=O)O` (centres undefined) [Gly-Tyr], for which the LC retention time was determined as 8.07 min.

For `CC(C)C(NC(=O)CN)C(=O)O` (centres undefined) [Gly-val], the LC retention time was 8.05 min.

For `C[N+](C)(C)CCOP(=O)([O-])OCC(O)CO` (centres undefined) [Glycerophosphocholine], the LC retention time came to 8.67 min.

Take `NCC(=O)O` [Glycine]: the LC retention time is 8.33 min.

Take `COc1cc2c(=O)c(-c3ccc(O)cc3)coc2cc1O` [Glycitein]: the LC retention time is 1.32 min.

In the case of `CC(C)CC(NC(=O)CN)C(=O)O` (centres undefined) [Glycyl-leucine], the LC retention time stood at 8.14 min.

Consider `CC(C)CC(NC(=O)C(COC(C)(C)C)NC(=O)C(Cc1ccc(O)cc1)NC(=O)C(CO)NC(=O)C(Cc1c[nH]c2ccccc12)NC(=O)C(Cc1cnc[nH]1)NC(=O)C1CCC(=O)N1)C(=O)NC(CCCN=C(N)N)C(=O)N1CCCC1C(=O)NNC(N)=O` (centres undefined) [Goserelin], for which the LC retention time turned out to be 7.83 min.

For `CN1C2CCCC1CC(NC(=O)c1nn(C)c3ccccc13)C2` (centres undefined) [Granisetron], the LC retention time was 4.12 min.

On to `NC(N)=NCC(=O)O` [Guanidinoacetic acid], for which the LC retention time turned out to be 8.16 min.

`Nc1nc2nc[nH]c2c(=O)[nH]1` [Guanine]: the LC retention time came out at 6.4 min.

`Nc1nc2c(ncn2C2OC3COP(=O)(O)OC3C2O)c(=O)[nH]1` (centres undefined) [Guanosine-3',5'-cyclic monophosphate]: the LC retention time came to 8.39 min.

With `Nc1nc2c(ncn2C2OC(CO)C(O)C2O)c(=O)[nH]1` (centres undefined) [Guanosine], the LC retention time stood at 7.33 min.

For `CC1CC2C3CC(F)C4=CC(=O)C(Cl)=CC4(C)C3(F)C(O)CC2(C)C1(O)C(=O)CO` (centres undefined) [Halometasone], the LC retention time was 1.12 min.

Consider `O=C(CCCN1CCC(O)(c2ccc(Cl)cc2)CC1)c1ccc(F)cc1` [Haloperidol], for which the LC retention time is 2.31 min.

With `CCCCCCCCCCCCCCCCC(=O)O` [Heptadecanoic acid], the LC retention time is 3.01 min.

Turning to `CCCCCC(=O)O` [Hexanoic acid], the LC retention time is 4.89 min.

With `CCCCCC(=O)OC(CC(=O)[O-])C[N+](C)(C)C` [Hexanoyl-L-carnitine], the LC retention time was determined as 5.09 min.

Regarding `CC(CCCCC(=O)Nc1ccc(C(F)(F)F)cc1)NCCc1cnc[nH]1` (centres undefined) [Histamine-trifluoromethyltoluide], the LC retention time was found to be 5.3 min.

For the compound `NCCc1cnc[nH]1` [Histamine], the LC retention time stood at 8.29 min.

Turning to `NC(Cc1cnc[nH]1)C(=O)O` (centres undefined) [Histidine], the LC retention time worked out at 9.48 min.

On to `NC(N)=NCCCCC(N)C(=O)O` (centres undefined) [Homoarginine], for which the LC retention time came to 9.34 min.

On to `NC(CCS)C(=O)O` (centres undefined) [Homocysteine], for which the LC retention time was 9.58 min.

On to `NC(CCSSCCC(N)C(=O)O)C(=O)O` (centres undefined) [Homocystine], for which the LC retention time stood at 9.58 min.

Turning to `COC(=O)CC(O)(CCCC(C)(C)O)C(=O)OC1C(OC)=CC23CCCN2CCc2cc4c(cc2C13)OCO4` (centres undefined) [Homoharringtonine], the LC retention time was found to be 3.24 min.

On to `NC(CCO)C(=O)O` (centres undefined) [Homoserine], for which the LC retention time is 8.29 min.

In the case of `COc1ccc(CCN)cc1OC` [Homoveratrylamine], the LC retention time is 4.78 min.

For the compound `CC=C1C2C=C(C)CC1(N)c1ccc(=O)[nH]c1C2` (centres undefined) [Huperzine], the LC retention time came out at 5.74 min.

Consider `O=C(O)CCc1ccccc1` [Hydrocinnamic acid], for which the LC retention time worked out at 8.71 min.

Consider `COc1ccc2c3c1OC1C(=O)CCC4C(C2)N(C)CCC314` (centres undefined) [Hydrocodone], for which the LC retention time is 3.8 min.

Values taken from the RepoRT retention time repository.
